Data taken from US20240024307A1, “PHARMACEUTICAL COMBINATION OF A CORTICOSTEROID AND AN ANTIHISTAMINE FOR THE TREATMENT AND CONTROL OF THE INFLAMMATORY COMPONENT OF ALLERGIC PROCESSES” (priority 2020, published 2024).

Experiments:
[1] = 40° C. and 75% RH; alone or in combination with various excipients; cited from earlier work
[2] = Comparative bioavailability study, 5 mg desloratadine and 0.25 mg betamethasone alone or in combination, single dose, healthy subjects, fasting; details: analyte desloratadine, 5 mg single dose
From the text: The study design was crossover, 3×6×3 open, prospective, and longitudinal, truncated to single dose.
Three treatments, three periods, six sequences with an elimination period of 14 days and with a total of 24 healthy subjects of both genders, in fasting conditions.

Q: For Clc1ccc2c(c1)CCc1cccnc1C2=C1CCNCC1 [Desloratadine, desloratadine], which colour stability [1] is on record?
A: exhibits color changes

Q: What about the “Elimination constant Ke” value [2] of the same compound?
A: 0.0408 ± 0.009 h⁻¹
